Source: patent US20070154457A1, “Use of eIF-5A to kill multiple myeloma cells” (Senesco Technologies, Inc., priority 2005, published 2007)
Starred links: 1 amine or outer side, 2 acyl side, 3 side chain; linkers in the order of their positions; H or OH if unused. Positions of bridges follow the written chain, without caps; N, C: chain ends. Non-standard residues stand in square brackets, D forms with d. Residues, ends and D or L forms follow the SMILES beside them. Chains are numbered I, II in the order given. Actinocin(9to1) = Cc1c2oc3c(C)ccc(C(=O)[*:1])c3nc-2c(C(=O)[*:2])c(N)c1=O; NMeV = CN[C@H](C(=O)O)C(C)C; Sar = CNCC(=O)O

How the values were obtained:
eIF5A1 [1] = experiment: 2-D gel electrophoresis and Western blot of eIF5A1 forms in HT-29 cells; type: cell-based, human; conditions: HT-29, beginning 1 hour after treatment, disappearing 24 hours after treatment
Description: For 2-D gel electrophoresis, HT-29 cell lysate was harvested in cold lysis buffer (7M Urea, 2M Thiourea, 30 mM Tris, 4% CHAPS, protease inhibitor cocktail), sonicated and cleared of debris by centrifugation. Protein concentration was determined using the Bradford method. The first dimensional isolelectric focusing was performed with the Ettan IPGphor Isoelectric Focusing System (Amersham Biosciences) according to the manufacture's instruction. Immobiline DryStrips (7 cm pH 4-7; Amersham Biosciences) were rehydrated in rehydration buffer (8M Urea, 2% CHAPS, 0.2% DTT, 0.5% pH 4-7 IPG buffer, 0.002% Bromophenol blue) along with cell lysate at room temperature for 12 hours. The isoelectric focusing was performed at 500 V for 30 min, 1000 V for 30 min, and 5000 V for 1 hour and 40 min. The protein on the IPG strip gel was then separated by SDS-PAGE and transferred to a PVDF membrane (Amersham Biosciences). Western blotting was performed using eIF5A antibody (BD Biosciences).

eIF5A1 [2] = experiment: Western blot of eIF5A1 expression in normal colon fibroblasts; type: cell-based; conditions: 0.5 μg/ml, 24 hours
Description: Protein for Western blotting was isolated using boiling lysis buffer [2% SDS, 50 mM Tris-HCl (pH 7.4)]. Protein concentrations were determined using the Bicinchoninic Acid Kit (Sigma). For Western blotting, 5 μg of total protein was fractionated on a 12% SDS-polyacrylamide gel and transferred to a polyvinylidene difluoride membrane. The primary antibodies used were anti-eIF5A (BD Transduction Laboratories; mouse IgG) and anti-β-actin (Oncogene; mouse IgM), both at a dilution of 1:20,000 in 5% milk. The secondary antibodies were anti-mouse IgG conjugated to horseradish peroxidase (HRP; Sigma) and anti-mouse IgM-HRP (Oncogene). Antibody-protein complexes were visualized using the enhanced chemiluminescence method (ECL, Amersham Biosciences). Following detection of eIF5A, the blots were stripped according to the protocol provided by the ECL Plus Western blotting detection system and reprobed with anti-β-actin antibody to confirm equal loading.

eIF5A1 [3] = experiment: Indirect immunofluorescence localization of eIF5A1 in HT-29 cells; type: cell-based, human
Description: HT-29 cells were cultured on poly-L-lysine-coated glass coverslips. Subconfluent cells were incubated for 16 hours with 200 Units of interferon gamma (IFN-γ; Roche Applied Science) followed by TNF-α (100 ng/ml; Leinco Technologies) for times varying from 10 minutes to 8 hours. Alternatively, cells were treated with 1.0 μg/ml Actinomycin D for increasing lengths of time from 30 minutes to 16 hours. The treated cells were fixed with 3% formaldehyde (methanol-free; Polysciences Inc.) for 20 minutes, washed twice for 5 minutes with PBS and once for 5 minutes with PBS containing 100 mM glycine, and permeabilized with 0.2% Triton X-100 in PBS for 4 minutes. Cells were then labeled for immunofluorescence using a standard protocol. The primary antibody was anti-eIF5A (BD Transduction Laboratories; mouse IgG) incubated at a dilution of 1:250 for 1 hour. The secondary antibody was anti-mouse IgG-AlexaFluor 488 (Molecular Probes) used at a dilution of 1:200 for 1 hour. Following antibody labeling, the nuclei were stained with Hoescht 33258, and the labeled cells were observed by fluorescent microscopy.

HT-29 cells = experiment: XTT and BrdU cell proliferation assays of HT-29 cells (siRNA, GC7); type: cell-based, human; conditions: 50 μM for 72 hours, BrdU incorporation
Description: HT-29 cells were transfected with siRNA on 96-well plates using Lipofectamine 2000 (Invitrogen). Metabolic activity of proliferating cells was measured with the XTT Cell Proliferation Kit (Roche Applied Science). The BrdU Cell Proliferation Kit (Roche Applied Science) was used to measure DNA synthesis following the manufacturer's protocol. For XTT assays performed following adenovirus infection, 5000 cells were plated per well in a 96-well plate. The next day cells were infected with Ad-lacZ, Ad-eIF5A1 and Ad-eIF5A1(K50A) (Ad-eIF5A1M) respectively with untreated cells as negative control and Actinomycin D treated cell as positive control. XTT substrate was added and A475 nm was measured with A690 nm as the reference.

[4] = test system: A549 lung carcinoma cells; experiment: Annexin/PI apoptosis by flow cytometry, A549 cells; type: cell-based; conditions: A549 infected with Ad-eIF5A1; JNK inhibitor II 10 μM, U1026 10 μM, Pifithrin-a 30 μM
Description: A549 lung carcinoma cells were infected with either an adenovirus expressing LacZ (Lac) or eIF5A1 (5A). Four hours after infection, the media was replaced with media containing either DMSO, 10 μM of the p38 inhibitor SB203580 (Calbiochem), 10 μM of the JNK inhibitor II (Calbiochem), 10 μM of the MEK inhibitor U1026 (Calbiochem), or 30 μM of the p53 inhibitor Pifithrin-a (Calbiochem). Forty-eight hours later, the cells were harvested and the percentage of cells undergoing apoptosis was determined by Annexin/PI staining (BD Bioscience) followed by analysis by flow cytometry.

p53 = experiment: Western blot of p53 and phosphorylated p53 in A549 cells; type: cell-based; conditions: A549, inhibitor added 4 hours after infection (U1026 10 μM, Pifithrin-a 30 μM)
Description: (§1) Western blotting of lysate from A549 cells used for MAPK/SAPK pathway analysis was performed using lysate collected in MAPK lysis buffer (10 mM Tris-pH 7.4, 2% SDS, 10% glycerol). Ten micrograms of lysate was separated on 10% SDS-PAGE gels and transferred to a PVDF membrane. The membrane was blocked for one hour in 5% non-fat skim milk in PBS, washed with PBS and incubated with primary antibody at 1:1000 in 5% BSA/PBS-T overnight at 4° C. with shaking. The MAPK/SAPK antibodies (P-p38, p38, P-JNK, JNK, P-ERK, ERK, p90RSK) were purchased from Cell Signaling. The p53 antibodies used in the A549 study were also obtained from Cell Signaling and used in a similar fashion.
A549 lung carcinoma cells were infected with either an adenovirus expressing LacZ (Lac) or eIF5A1 (5A). Four hours after infection, the media was replaced with media containing either DMSO, 10 μM of the p38 inhibitor SB203580 (Calbiochem), 10 μM of the JNK inhibitor II (Calbiochem), 10 μM of the MEK inhibitor U1026 (Calbiochem), or 30 μM of the p53 inhibitor Pifithrin-a (Calbiochem). Forty-eight hours later, the cells were treated with EGF for 30 minutes and the cell lysate was harvested. Western blots were performed on the lysate using antibodies directed against either total p53 (p53), or p53 phosphorylated on serine 15 [P-p53(ser15)], or p53 phosphorylated on 37 [P-p53(ser37)].

[5] = test system: MAPK/SAPK signaling pathways; experiment: Western blot of MAPK/SAPK pathway activation in A549 cells; type: cell-based; conditions: A549 infected with Ad-eIF5A1 or Ad-eIF5A1(K50A), with MEK1 inhibitor
Description: as §1
HT-29 cells were infected with 3000 infectious units per cell and experiments with A549 cells were performed using 1500 infectious units per cell.

## Cc1c2oc3c(C)ccc(C(=O)N[C@@H]4C(=O)N[C@H](C(C)C)C(=O)N5CCC[C@H]5C(=O)N(C)CC(=O)N(C)[C@@H](C(C)C)C(=O)O[C@@H]4C)c3nc-2c(C(=O)N[C@@H]2C(=O)N[C@H](C(C)C)C(=O)N3CCC[C@H]3C(=O)N(C)CC(=O)N(C)[C@@H](C(C)C)C(=O)O[C@@H]2C)c(N)c1=O [Actinomycin D] (I: T[dV]P[Sar][NMeV] / II: T[dV]P[Sar][NMeV]; ester I:1-I:C, II:1-II:C; linker I:N-II:N via Actinocin(9to1))
eIF5A1 [1]
  deoxyhypusinated form of eIF5A1: increase in the presence of the deoxyhypusinated form of eIF5A1
eIF5A1 [2]
  eIF5A1 protein expression: up-regulated
eIF5A1 [3]
  time to shift of eIF5A1 from cytoplasmic to nuclear localization: ≤ 90 min

## N=C(N)NCCCCCCCN [GC7, N1-guanyl-1,7-diaminoheptane]
HT-29 cells
  effect on the growth of the cells: profound effect on the growth

## O=C1c2ccccc2-c2n[nH]c3cccc1c23 [JNK inhibitor II]
[4]
  effect of inhibitor on apoptosis induced by eIF5A1: increases apoptosis

## N#CC(=C(/N)Sc1ccccc1N)/C(C#N)=C(/N)Sc1ccccc1N [U1026]
p53
  effect of inhibitor on Ad-eIF5A1-induced accumulation and phosphorylation of p53: inhibited
[5]
  activation of JNK: inhibited the activation of JNK
  p38 activation: increased p38 activation
[4]
  effect of inhibitor on apoptosis induced by eIF5A1: increases apoptosis

## Pifithrin-a
p53
  effect of inhibitor on Ad-eIF5A1-induced accumulation and phosphorylation of p53: inhibited
[4]
  effect of inhibitor on apoptosis induced by eIF5A1: decreases apoptosis
